Values of other authors as cited in US10174388B2, “Method for selection of agents influencing intestinal motility disorders and pain” (BioGaia AB, priority 2012, dated 2019).
Where two headings read alike, the source gives them in different places.

Conditions: baseline 197 minutes in both groups

simethicone
median daily crying time (day 7): 177 min
median daily crying time (day 28): 145 min
